The text below walks through data of ChEMBL document CHEMBL2157938, “Use of structure based design to increase selectivity of pyridyl-cinnoline phosphodiesterase 10A (PDE10A) inhibitors against phosphodiesterase 3 (PDE3)” (Bioorg Med Chem Lett, 2012).

Series [1] can be described thus: Selectivity ratio of IC50 for PDE3 to IC50 for mouse PDE10A7.
The nature of series [2]: Inhibition of PDE3.
Series [3] is described as follows: Inhibition of mouse PDE10A7 using fluorescein labeled CAMP as substrate incubated for 30 mins prior to substrate addition measured after 30 mins by fluorescence polarization assay. Background: Fluorescence polarisation rises when a labelled molecule tumbles more slowly, as on binding a larger partner.
Series [4] in a line: Clearance in rat at 1 mg/kg, iv and 5 mg/kg, po. The series is classed as ADME, organism-based. Conditions: in vivo.
The nature of series [5]: Oral bioavailability in rat at 5 mg/kg. The series is classed as ADME, organism-based. Conditions: in vivo.
The nature of series [6]: Half life in rat at 1 mg/kg, iv and 5 mg/kg, po. Type of series: ADME, organism-based. Conditions: in vivo.
Series [7] can be described thus: Clearance in rat liver microsomes. The series is classed as ADME, Microsome. Conditions: read-out: CLH. On the technique in general: Liver microsomes are a subcellular fraction often used to study metabolism.

A word on the IC50: it is the concentration at which inhibition is half-maximal. For the molecule `COc1cc2c(-c3cnc(N4CCC(C(C)(C)O)CC4)c(C)c3)cnnc2cc1OC(F)F`, the Ratio IC50 in series [1] was 231. The IC50 in series [2] amounted to 15900 nM; in series [3] it was 68.6 nM.

For the molecule `COc1cc2nncc(-c3cnc(N4CCC(C(C)(C)O)CC4)c(C)c3)c2cc1C`, the Ratio IC50 in series [1] is 980. Also, the IC50 in series [2] stood at 25100 nM; in series [3] it was 25.6 nM.

With `COc1cc2nncc(-c3ccc(NC(C)C)nc3)c2cc1OC`, the IC50 in series [3] turned out to be 7.6 nM.

For orientation: bioavailability means dose-corrected exposure relative to a reference, in per cent. Lower therefore signals little systemic uptake. Usually half-life stands for how long it takes for the measured level to halve. A lower half-life goes with rapid decline. As to `COc1cc2nncc(-c3cnc(N4CCC(C(C)(C)O)CC4)c(C)c3)c2cc1OC1CC1`, the Ratio IC50 in series [1] amounted to 4360. The molecule also showed a clearance in series [4] of 15.5 mL/min/kg. Also, the 50% inhibitory concentration (IC50) in series [2] stood at 17900 nM; in series [3], 4.1 nM. The molecule further registered a bioavailability in series [5] of 32%. The molecule also had a half-life in series [6] of 1.48 h.

For the molecule `COc1cc2nncc(-c3cnc(N4CCC(C(C)(C)O)CC4)c(C4CC4)c3)c2cc1OC`, the Ratio IC50 in series [1] stood at 2290. In addition, the IC50 was found to be 2980 nM in series [2] and 1.3 nM in series [3].

For `CCOc1cc2c(-c3cnc(N4CCC(C(C)(C)O)CC4)c(C)c3)cnnc2cc1C`, in series [1], the Ratio IC50 is over 244. Also, the half-maximal inhibitory concentration (IC50) in series [2] was over 10000 nM; in series [3] it was 40.9 nM.

On to `COc1cc2nncc(-c3cnc(N4CCC(C(C)(C)O)CC4)c(Cl)c3)c2cc1OC`, for which the Ratio IC50 in series [1] was found to be 357. Moreover, the figures for the IC50 in series [2] and in series [3] were 2250 nM and 6.3 nM, respectively.

In series [3], `COc1cc2ccnc(-c3ccc(NC(C)C)nc3)c2cc1OC` gave an IC50 of 47 nM.

As for `CCn1cc(-c2cnc(N3CCC(C(C)(C)O)CC3)c(C)c2)c2cc(OC)c(OC)cc2c1=O`, the half-maximal inhibitory concentration (IC50) in series [3] is 13.8 nM. For the same molecule, the microsomal CLint in series [7] was 50 µL/min/mg.

On to `COc1cc2snc(-c3ccc(NC(C)C)nc3)c2cc1OC`, for which, in series [3], half-maximal inhibition (IC50) required 1090 nM.

With `COc1cc2c(-c3cnc(N4CCC(C(C)(C)O)CC4)c(C)c3)cnnc2cc1F`, the Ratio IC50 in series [1] was over 75. For the same molecule, the figures for the IC50 in series [2] and in series [3] were over 10000 nM and 132 nM, respectively.

In the case of `COc1cc2nncc(-c3cnc(N4CCC(C(C)(C)O)CC4)c(C)c3)c2cc1OC`, the Ratio IC50 in series [1] was found to be 347. It took 1700 nM to reach half-maximal inhibition in series [2] (IC50). The molecule also came in with a bioavailability in series [5] of 60%. Besides, in series [6], the half-life was 1.54 h.

Molecule `COc1cc2nccc(-c3cnc(N4CCC(C(C)(C)O)CC4)c(C)c3)c2cc1OC` came in with an IC50 in series [3] of 11.9 nM. Also, in series [7], the microsomal CLint came out at 57 µL/min/mg.

Turning to `COc1cc2c(-c3cnc(N4CCC(C(C)(C)O)CC4)c(C)c3)cnnc2cc1OCC1CC1`, the Ratio IC50 in series [1] was over 523. The figures for the IC50 in series [2] and in series [3] were over 10000 nM and 19.1 nM, respectively.

For `COc1cc2cncc(-c3cnc(N4CCC(C(C)(C)O)CC4)c(C)c3)c2cc1OC`, the IC50 in series [3] came out at 13.4 nM. Also, the microsomal CLint in series [7] was determined as 69 µL/min/mg.

`COc1cc2nncc(-c3cnc(N4CCC(C(C)(C)O)CC4)c(C(F)F)c3)c2cc1OC`: the Ratio IC50 in series [1] was 5520. Moreover, the results for the concentration for half-maximal inhibition (IC50) in series [2] and in series [3] were 6630 nM and 1.2 nM, respectively. For the same molecule, the bioavailability in series [5] worked out at 46%. Also, the half-life in series [6] is 2.08 h.

Regarding `COc1cc2nncc(-c3cnc(N4CCC(C(C)(C)O)CC4)c(C)c3)c2cc1N(C)C`, the values for the IC50 in series [2] and in series [3] were over 10000 nM and 4500 nM, respectively.
